# Laboratory results: US10004716B2, “Therapeutic/ preventive agent containing coumarin derivative as active ingredient” (NIPPON ZOKI PHARMACEUTICAL CO., LTD., priority 2014, dated 2018)
# Columns and labels:
# [1] = tested on: rats suffering from degenerative intervertebral disk induced by nicotine; assay: 50% reaction threshold value to mechanical stimulation (von Frey test) in rats with degenerative intervertebral disk induced by nicotine; assay type: in vivo; details: SD male rats, after 41 days from exposure to nicotine, 1 hour after administration; per os once daily; n = 8; normal control 15.0, diseased control 4.6
# Experimental: After 16 days from the purchase, SD male rats were organized into normal control group and nicotine group in terms of body weight, 50% reaction threshold value (measuring method will be mentioned later) and duration of walking time and, after 17 days from the purchase, exposure to nicotine was started for a nicotine group. Nicotine was prepared into 344.8 mg/mL using a physiological saline solution, filled into an osmotic pressure pump and retained under the skin of waist of rats. After 21 days from the retaining, an osmotic pressure pump into which a freshly-prepared nicotine solution was filled was retained under the skin of rats of five groups except the normal control group. Nicotine was prepared into […] using a physiological saline solution, filled into an osmotic pressure pump and retained under the skin of waist of the SD male rats.
# After 13 days from exposure to nicotine, measurement of 50% reaction threshold value, duration of walking time and body weight were measured and a group organization was done into 6 groups of normal control group, diseased control group, compound 57-administered group, compound 58-administered group, compound 60-administered group and compound 68-administered group.
# A test substance was suspended using 0.5 w/v % CMC and, together with stirring, 10 mL/kg of the suspension was repeatedly administered per os once daily after 14 to 52 or 53 days from the initiation of exposure to nicotine using an oral sonde for rats. To the normal control group and the diseased control group, 0.5 w/v % CMC was repeatedly administered per os in the same administration schedule and administration method.
# A 50% reaction threshold value to mechanical stimulation was measured before the exposure to nicotine and after 41 days from the exposure to nicotine. The six groups of the rats mentioned in the above (2) were placed in a transparent acrylic gauge where the bottom is a metal wire, acclimated for about 3 minutes and a 50% reaction threshold value to mechanical stimulation was measured after 1 hour from the administration of a testing drug.
# The measurement was conducted using a von Frey filament (manufactured by North Coast Medical Inc.) in accordance with a method of Chaplan, et al. (Journal of Neuroscience Methods, vol. 53, no. 1, pages 55 to 63, 1994) and a method of Dixon, et al. ([…] of Pharmacology and Toxicology, vol. 20, pages 441 to 462, 1980). […] A 50% reaction threshold value to mechanical stimulation was measured using the reaction for the stimulation for six times in total and a mean value in each of the groups was calculated. […]
# IL-1β gene expression = assay: Suppression of LPS-induced gene expression of inflammation-related factors in THP-1 cells (real time PCR): IL-1β; assay type: cell-based, human; details: PMA-differentiated THP-1 cells; test substance 12.5 μmol/mL 2 hours, then LPS 10 mg/mL 3 hours; n = 3
# Experimental: THP-1 cells were subjected to induction of differentiation for 72 hours with PMA (phorbol 12-myristate 13-acetate; 100 nM/L) and then the THP-1 cells (5×10^5 cells/mL) were incubated for 24 hours in a RPMI 1640+10% FCS culture solution in a 24-well plate. After that, a test substance was added so as to make the final concentration 12.5 μmol/mL followed by conducting the preincubation for 2 hours, a lipopolysaccharide (LPS) was then added thereto so as to make the final concentration 10 mg/mL and, after 3 hours, the cells were recovered.
# QIAzol Lysis Reagent (QIAGEN) (1 mL) was added to the above to suspend, 200 μL of chloroform was added thereto followed by mixing and centrifugation (at 4° C. and 1500 rpm) was conducted whereby the supernatant liquid was recovered. Total RNA was extracted and purified by treating the supernatant liquid with QIACube (QIAGEN) and RNeasy Micro Kit (QIAGEN). cDNA was prepared from the total RNA using Omniscript RT kit (QIAGEN) and Oligo(dT)12-18 Primer (Invitrogen).
# Gene expression level of the inflammation-related factors [IL-1β, IL-6 and monocyte chemotactic protein (MCP)-1] was measured by a conventional real time PCR method using a fluorescent dye SYBR GREEN I (Roche Diagnostics) by Light Cycler LC 480 (the same) using cDNA synthesized from the total RNA extracted in the above (2). A calibration curve was prepared by diluting the PCR product quantified by PicoGreen dsDNA Quantitation kit (Molecular probes) (a DNA quantitation kit) to an extent of 10^2˜10^7 copies/μL. From each of the resulting quantified values, copy numbers per 10000 copies of GAPDH gene being an internal standard were calculated.
# COX-2 gene expression = assay: Suppression of IL-1α-induced gene expression of inflammation-related factors in bovine cartilage pieces (real time PCR): COX-2; assay type: cell-based; details: 20 μmol/L test substance 2 hours, then IL-1α 3 ng/mL 8 hours, n = 3
# Experimental: Each 6 to 8 cartilage pieces (diameter: 4 mm) of bovine metacarpophalangeal joint were placed into each well of a 24-well plate and incubated for one night in 1 mL of a basal medium in a CO2 incubator which was set at 37° C. and 5% by volume of CO2. After that, they were incubated for 2 hours in a basal medium containing 20 μmol/L of a test substance and, after addition of human recombinant IL-1α (3 ng/mL) thereto, they were incubated for 8 hours more. After completion of the incubation, the culture medium was discarded, an RNA stabilizer was added to the cartilage pieces, the mixture was incubated at 4° C. for one night and the cartilage pieces were finely cut using scissors, placed into micro-tubes and stored with freezing until the extraction of RNA therefrom.
# The cartilage pieces placed in the micro-tubes were pulverized using Tissue Lyser (QIAGEN) (at 25 Hz for 5 minutes; for two times), 1 mL of QIAzol Lysis Reagent (QIAGEN) was added thereto to suspend, 200 μL of chloroform was added thereto followed by mixing and the mixture was centrifuged (1500 rpm at 4° C.) to recover the supernatant liquid. Total RNA was extracted and purified using QIACube (QIAGEN) and RNeasy Micro Kit (QIAGEN). cDNA was prepared from the total RNA using Omniscript RT Kit (QIAGEN) and Oligo(dT)12-18 Primer (Invitrogen).
# The cDNA synthesized from the total RNA extracted in the above (2) was used to measure the gene expression level of the inflammation-related factors [IL-1β, IL-6, COX-2 and iNOS (inducible nitric oxide synthase)] by a conventional real time PCR method using a fluorescent dye SYBR GREEN I (Roche Diagnostics) by a Light Cycler LC 480 (the same). A calibration curve was prepared by dilution of a PCR product quantified by a DNA quantitation kit (PicoGreen dsDNA Quantitiation Kit (Molecular Probes)) to an extent of 10^2˜10^7 copies/μL. From each of the resulting measured data, copy numbers per 10000 copies of glyceroaldehyde-3-phosphate dehydrogenase (GAPDH) which was an internal standard were calculated.
smiles,measurement,setting,value
"O=c1oc2c(OS(=O)(=O)c3cccc(Br)c3)cccc2cc1NS(=O)(=O)c1cccc(C(F)(F)F)c1 [Compound 60, 2-Oxo-3-[[3-(trifluoromethyl)phenyl]sulfonylamino]-chromen-8-yl 3-bromobenzenesulfonate]",Threshold Value for Pain,[1],9.6 g
same,Copy Numbers per 10000 Copies of GAPDH IL-1β,IL-1β gene expression,29872.3 copies per 10000 copies of GAP
same,Copy Numbers per 10000 Copies of GAPDH COX-2,COX-2 gene expression,920.6 copies per 10000 copies of GAP
"O=c1oc2c(OS(=O)(=O)c3ccc(C(F)(F)F)cc3)cccc2cc1NS(=O)(=O)c1cccc(C(F)(F)F)c1 [Compound 57, 2-Oxo-3-[[3-(trifluoromethyl)phenyl]sulfonylamino]-chromen-8-yl 4-(trifluoromethyl)benzenesulfonate]",Threshold Value for Pain,[1],7.5 g
same,Copy Numbers per 10000 Copies of GAPDH IL-1β,IL-1β gene expression,30318.3 copies per 10000 copies of GAP
same,Copy Numbers per 10000 Copies of GAPDH COX-2,COX-2 gene expression,1420.8 copies per 10000 copies of GAP
"O=c1oc2c(OS(=O)(=O)c3ccc(C(F)(F)F)cc3)cccc2cc1NS(=O)(=O)c1cccc(Br)c1 [Compound 58, 3-[(3-Bromophenyl)sulfonylamino]-2-oxochromen-8-yl 4-(trifluoromethyl)benzenesulfonate]",Threshold Value for Pain,[1],6.7 g
same,Copy Numbers per 10000 Copies of GAPDH IL-1β,IL-1β gene expression,31904.4 copies per 10000 copies of GAP
same,Copy Numbers per 10000 Copies of GAPDH COX-2,COX-2 gene expression,982.3 copies per 10000 copies of GAP
"O=c1oc2c(OS(=O)(=O)c3cccc(C(F)(F)F)c3)cccc2cc1NS(=O)(=O)c1ccc(C(F)(F)F)cc1 [Compound 68, 2-Oxo-3-[[4-(trifluoromethyl)phenyl]sulfonylamino]-chromen-8-yl 3-(trifluoromethyl)benzenesulfonate]",Threshold Value for Pain,[1],7.6 g
same,Copy Numbers per 10000 Copies of GAPDH IL-1β,IL-1β gene expression,24423.1 copies per 10000 copies of GAP
same,Copy Numbers per 10000 Copies of GAPDH COX-2,COX-2 gene expression,1655.9 copies per 10000 copies of GAP
